The target in this test is (recombinant) catalytic domain of human Bub1 (amino acids 704-1085) (Homo sapiens (Human), UniProt O43683). Nature of the test: Bub1 kinase assay (TR-FRET). It is filed as biochemical. The note with it: ATP 10 μM final, peptide substrate 1 μM final, 60 min at 22° C., read-out: Biological Assay: Bub1 kinase assay median IC50. The gist of the method:
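Readout was TR-FRET between a Eu-labeled antibody complex recognizing phosphoserine and streptavidin-XL665 on the biotinylated peptide, after EDTA stop and 1 h at 22° C. The kinase reaction ran for 60 min at 22° C. Values are means or medians of repeat tests, from 4-parameter fits normalized to enzyme-free and inhibitor-free controls.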
In general terms: In TR-FRET formats the signal depends on donor and acceptor labels being close together.

Structures can show the parent of a compound that is named as a salt.

One may read the IC50 as the point on the concentration scale where inhibition reaches its midpoint.

Sequence of (recombinant) catalytic domain of human Bub1 (amino acids 704-1085) (O43683 704-1085): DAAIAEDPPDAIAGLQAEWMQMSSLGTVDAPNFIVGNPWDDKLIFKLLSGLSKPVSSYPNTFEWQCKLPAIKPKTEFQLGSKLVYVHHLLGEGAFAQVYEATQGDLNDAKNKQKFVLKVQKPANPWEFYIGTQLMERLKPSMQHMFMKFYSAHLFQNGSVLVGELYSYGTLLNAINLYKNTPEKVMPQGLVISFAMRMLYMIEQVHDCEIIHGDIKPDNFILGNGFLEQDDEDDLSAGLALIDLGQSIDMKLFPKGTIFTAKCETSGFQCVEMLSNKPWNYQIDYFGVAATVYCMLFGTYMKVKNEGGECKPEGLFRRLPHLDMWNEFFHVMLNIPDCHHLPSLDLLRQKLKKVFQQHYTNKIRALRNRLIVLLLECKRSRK

For `O=C1CCCc2[nH]c(-c3ccnc(N(C(=O)C4CC4)C(=O)C4CC4)c3)c(Nc3ccccc3)c21` [Example 163, N-(cyclopropylcarbonyl)-N-{4-[4-oxo-3-(phenylamino)-4,5,6,7-tetrahydro-1H-indol-2-yl]pyridin-2-yl}cyclopropanecarboxamide], the half-maximal inhibitory concentration (IC50) was found to be 126 nM.
Under `CC1(C)CC(=O)c2c([nH]c(-c3ccnc(NC(=O)C(F)F)c3)c2Nc2ccccc2)C1` [Example 166, N-{4-[6,6-dimethyl-4-oxo-3-(phenylamino)-4,5,6,7-tetrahydro-1H-indol-2-yl]pyridin-2-yl}-2,2-difluoroacetamide] stands 1690 nM; under `Cn1c2c(c(Nc3ccccc3)c1-c1ccncc1)C(=O)CCC2` [Example 169, 1-methyl-3-(phenylamino)-2-(pyridin-4-yl)-1,5,6,7-tetrahydro-4H-indol-4-one], 125 nM.
To `CCn1c2c(c(Nc3ccccc3)c1-c1ccncc1)C(=O)CCC2` [Example 170, 1-ethyl-3-(phenylamino)-2-(pyridin-4-yl)-1,5,6,7-tetrahydro-4H-indol-4-one] belongs 40.2 nM; to `CCCn1c2c(c(Nc3ccccc3)c1-c1ccncc1)C(=O)CCC2` [Example 171, 3-(phenylamino)-1-propyl-2-(pyridin-4-yl)-1,5,6,7-tetrahydro-4H-indol-4-one], 14.4 nM.
To `COC(=O)CCn1c2c(c(Nc3ccccc3)c1-c1ccncc1)C(=O)CCC2` [Example 172, methyl 3-[4-oxo-3-(phenylamino)-2-(pyridin-4-yl)-4,5,6,7-tetrahydro-1H-indol-1-yl]propanoate] belongs 1050 nM.
Consider `O=C(O)CCn1c2c(c(Nc3ccccc3)c1-c1ccncc1)C(=O)CCC2` [Example 173, 3-[4-oxo-3-(phenylamino)-2-(pyridin-4-yl)-4,5,6,7-tetrahydro-1H-indol-1-yl]propanoic acid], for which the IC50 is 474 nM.
On to `NC(=O)CCn1c2c(c(Nc3ccccc3)c1-c1ccncc1)C(=O)CCC2` [Example 174, 3-[4-oxo-3-(phenylamino)-2-(pyridin-4-yl)-4,5,6,7-tetrahydro-1H-indol-1-yl]propanamide], for which the IC50 amounted to 220 nM.
As for `O=C1CCCc2c1c(Nc1ccccc1)c(-c1ccncc1)n2CCCO` [Example 175, 1-(3-hydroxypropyl)-3-(phenylamino)-2-(pyridin-4-yl)-1,5,6,7-tetrahydro-4H-indol-4-one], the IC50 came to 217 nM.
To `CS(=O)(=O)CCn1c2c(c(Nc3ccccc3)c1-c1ccncc1)C(=O)CCC2` [Example 176, 1-[2-(methylsulfonyl)ethyl]-3-(phenylamino)-2-(pyridin-4-yl)-1,5,6,7-tetrahydro-4H-indol-4-one] belongs 2040 nM; to `CCn1c2c(c(Nc3ccccc3)c1-c1ccncc1Cl)C(=O)CCC2` [Example 177, 2-(3-chloropyridin-4-yl)-1-ethyl-3-(phenylamino)-1,5,6,7-tetrahydro-4H-indol-4-one], 5670 nM; to `CC1CC(=O)c2c(Nc3ccccc3)c(-c3ccncc3)n(C)c2C1` (centres unmarked) [Example 178, 1,6-dimethyl-3-(phenylamino)-2-(pyridin-4-yl)-1,5,6,7-tetrahydro-4H-indol-4-one], 99.6 nM.
To `Cn1c2c(c(Nc3ccccc3)c1-c1ccncc1)C(=O)CC(C)(C)C2` [Example 179, 1,6,6-trimethyl-3-(phenylamino)-2-(pyridin-4-yl)-1,5,6,7-tetrahydro-4H-indol-4-one] belongs 162 nM.
Consider `CC1(C)CC(=O)c2c(Nc3ccccc3)c(-c3ccncc3)n(CC(F)(F)F)c2C1` [Example 180, 6,6-dimethyl-3-(phenylamino)-2-(pyridin-4-yl)-1-(2,2,2-trifluoroethyl)-1,5,6,7-tetrahydro-4H-indol-4-one], for which the IC50 stood at 199 nM.
Under `CCn1c2c(c(Nc3ccccc3)c1-c1ccncc1)C(=O)CC(C)(C)C2` [Example 181, 1-ethyl-6,6-dimethyl-3-(phenylamino)-2-(pyridin-4-yl)-1,5,6,7-tetrahydro-4H-indol-4-one] stands 32.7 nM.
To `CCCn1c2c(c(Nc3ccccc3)c1-c1ccncc1)C(=O)CC(C)(C)C2` [Example 182, 6,6-dimethyl-3-(phenylamino)-1-propyl-2-(pyridin-4-yl)-1,5,6,7-tetrahydro-4H-indol-4-one] belongs 68.9 nM; to `CC1(C)CC(=O)c2c(Nc3ccccc3)c(-c3ccncc3)n(CCO)c2C1` [Example 184, 1-(2-hydroxyethyl)-6,6-dimethyl-3-(phenylamino)-2-(pyridin-4-yl)-1,5,6,7-tetrahydro-4H-indol-4-one], 200 nM; to `CC1(C)CC(=O)c2c(Nc3ccccc3)c(-c3ccncc3)n(CC(N)=O)c2C1` [Example 185, 2-[3-anilino-6,6-dimethyl-4-oxo-2-(pyridin-4-yl)-4,5,6,7-tetrahydro-1H-indol-1-yl]acetamide formic acid salt], 1300 nM.
To `CC1(C)CC(=O)c2c(Nc3ccccc3)c(-c3ccncc3)n(Cc3ccccc3)c2C1` [Example 186, 1-benzyl-6,6-dimethyl-3-(phenylamino)-2-(pyridin-4-yl)-1,5,6,7-tetrahydro-4H-indol-4-one] belongs 2940 nM; to `CCn1c2c(c(Nc3ccccc3)c1-c1ccnc(NC(C)=O)c1)C(=O)CC(C)(C)C2` [Example 187, N-{4-[1-ethyl-6,6-dimethyl-4-oxo-3-(phenylamino)-4,5,6,7-tetrahydro-1H-indol-2-yl]pyridin-2-yl}acetamide], 52.3 nM; to `CC1(C)CC(=O)c2c(Nc3ccccc3)c(-c3ccncc3)n(CC(F)F)c2C1` [Example 188, 1-(2,2-difluoroethyl)-6,6-dimethyl-3-(phenylamino)-2-(pyridin-4-yl)-1,5,6,7-tetrahydro-4H-indol-4-one], 50.6 nM.
Turning to `CC(C)[n+]1ccc(-c2[nH]c3c(c2Nc2ccccc2)C(=O)CC(C)(C)C3)cc1` [Example 189, 4-[6,6-dimethyl-4-oxo-3-(phenylamino)-4,5,6,7-tetrahydro-1H-indol-2-yl]-1-(propan-2-yl)pyridinium iodide], the IC50 amounted to 259 nM.
Under `CC1(C)CC(=O)c2c([nH]c(-c3cc[n+](CC(F)(F)F)cc3)c2Nc2ccccc2)C1` [Example 190, 4-[6,6-dimethyl-4-oxo-3-(phenylamino)-4,5,6,7-tetrahydro-1H-indol-2-yl]-1-(2,2,2-trifluoroethyl)pyridinium trifluoromethanesulfonate] stands 475 nM; under `CC1(C)CC(=O)c2c([nH]c(-c3cc[n+](CCCO)cc3)c2Nc2ccccc2)C1` [Example 191, 4-[6,6-dimethyl-4-oxo-3-(phenylamino)-4,5,6,7-tetrahydro-1H-indol-2-yl]-1-(3-hydroxypropyl)pyridinium iodide], 326 nM.
Under `CC1(C)CC(=O)c2c([nH]c(-c3cc[n+](CC(F)F)cc3)c2Nc2ccccc2)C1` [Example 192, 4-[6,6-dimethyl-4-oxo-3-(phenylamino)-4,5,6,7-tetrahydro-1H-indol-2-yl]-1-(2,2-difluoroethyl)pyridinium trifluoromethanesulfonate] stands 1280 nM.
For the molecule `COC(=O)C[n+]1ccc(-c2[nH]c3c(c2Nc2ccccc2)C(=O)CC(C)(C)C3)cc1` [Example 193, 4-[6,6-dimethyl-4-oxo-3-(phenylamino)-4,5,6,7-tetrahydro-1H-indol-2-yl]-1-(2-methoxy-2-oxoethyl)pyridinium bromide], the IC50 worked out at 921 nM.
Under `CC1(C)C/C(=N\O)c2c([nH]c(-c3ccncc3)c2Nc2ccccc2)C1` [Example 194, 4-(hydroxyimino)-6,6-dimethyl-N-phenyl-2-(pyridin-4-yl)-4,5,6,7-tetrahydro-1H-indol-3-amine] stands 42 nM; under `CC(=O)O/N=C1\CC(C)(C)Cc2[nH]c(-c3ccncc3)c(Nc3ccccc3)c21` [Example 195, 1-({(E)-[6,6-dimethyl-3-(phenylamino)-2-(pyridin-4-yl)-1,5,6,7-tetrahydro-4H-indol-4-ylidene]amino}oxy)ethanone], 102 nM; under `O=C1CCCc2[nH]c(-c3ccncc3Br)c(Nc3ccccc3)c21` [Example 196, 2-(3-bromopyridin-4-yl)-3-(phenylamino)-1,5,6,7-tetrahydro-4H-indol-4-one], 36.5 nM.
To `N#Cc1cnccc1-c1[nH]c2c(c1Nc1ccccc1)C(=O)CCC2` [Example 197, 4-[4-oxo-3-(phenylamino)-4,5,6,7-tetrahydro-1H-indol-2-yl]pyridine-3-carbonitrile] belongs over 20000 nM.
Under `CC1(C)CC(=O)c2c([nH]c(-c3ccncc3C#N)c2Nc2cccc(F)c2)C1` [Example 198, 4-{3-[(3-fluorophenyl)amino]-6,6-dimethyl-4-oxo-4,5,6,7-tetrahydro-1H-indol-2-yl}pyridine-3-carbonitrile] stands 10900 nM; under `CC1(C)CC(=O)c2c([nH]c(-c3ccncc3Br)c2Nc2ccccc2)C1` [Example 199, 2-(3-bromopyridin-4-yl)-6,6-dimethyl-3-(phenylamino)-1,5,6,7-tetrahydro-4H-indol-4-one], 12 nM; under `CSc1cc(-c2[nH]c3c(c2Nc2ccccc2)C(=O)CC(C)(C)C3)ccn1` [Example 200, 6,6-dimethyl-2-[2-(methylsulfanyl)pyridin-4-yl]-3-(phenylamino)-1,5,6,7-tetrahydro-4H-indol-4-one], 610 nM.
As to `CSc1cnccc1-c1[nH]c2c(c1Nc1ccccc1)C(=O)CC(C)(C)C2` [Example 201, 6,6-dimethyl-2-[3-(methylsulfanyl)pyridin-4-yl]-3-(phenylamino)-1,5,6,7-tetrahydro-4H-indol-4-one], the IC50 was 47.4 nM.
In the case of `C[S+]([O-])c1cnccc1-c1[nH]c2c(c1Nc1ccccc1)C(=O)CC(C)(C)C2` (centres unmarked) [Example 202, {4-[6,6-dimethyl-4-oxo-3-(phenylamino)-4,5,6,7-tetrahydro-1H-indol-2-yl]pyridin-3-yl}(methyl)sulfoniumolate], the IC50 turned out to be 1990 nM.
